Experimental findings from BindingDB's records for doi:10.1016/j.bmc.2011.12.062 (The Ohio State University College of Medicine, 2012) are described below.

By IC50 is commonly meant the concentration that gives 50% inhibition.

This assay can be described thus: Displacement of thioflavin T from insulin amyloid fibrils by thioflavin-T fluorescent dye assay.
Consider `CN(C)c1ccc(/C=C/c2sc3ccccc3[n+]2CCCC(c2ccccc2)c2ccccc2)cc1`, for which the IC50 worked out at 210 nM.
Then `CC[n+]1c(/C=C/c2ccc(N(C)C)cc2)sc2ccccc21`, with 6 nM.
Regarding `CN(C)c1ccc(/C=C/c2sc3ccccc3[n+]2Cc2cccc(Oc3ccccc3)c2)cc1`, the IC50 amounted to 180 nM.
Then `CN(C)c1ccc(/C=C/c2sc3ccccc3[n+]2Cc2ccccc2)cc1`, with 12 nM; and `COc1ccc2nc(/N=N/c3ccc(N(C)C)c4ccccc34)sc2c1`, with 340 nM.
In the case of `CN(C)c1ccc(/C=C/c2sc3ccccc3[n+]2C/C=C/c2ccccc2)cc1` it was 80 nM; in that of `COc1ccc2nc(/N=N/c3ccc(N(C)C)cc3)sc2c1`, 700 nM.
Then `CN(C)c1ccc(/C=C/c2sc3ccccc3[n+]2Cc2ccc(-c3ccccc3)cc2)cc1`, with 34 nM.
Regarding `Nc1ccc(/N=N/c2nc3ccccc3s2)c2ccccc12`, the IC50 was 130 nM.
In the case of `CCCCCCC[n+]1c(/C=C/c2ccc(N(CCCC)CCCC)cc2)sc2ccccc21` it was 90 nM; in that of `CN(C)c1ccc(/N=N/c2sc3ccccc3[n+]2C)cc1`, 60 nM; in that of `CN(C)c1ccc(/C=C/c2sc3ccccc3[n+]2Cc2ccccc2-c2ccccc2)cc1`, 80 nM.
Then `CCCC[n+]1c(/C=C/c2ccc(N(C)C)cc2)sc2ccccc21`, with 27 nM.
`CCCCCCC[n+]1c(/C=C/c2ccc(N(C)C)cc2)sc2ccccc21` displayed an IC50 of 83 nM.
In the case of `Cc1ccc2sc(/C=C/c3ccc(N(C)C)cc3)[n+](C)c2c1` it was 7.5 nM; in that of `Cc1ccc2c(c1)sc(/C=C/c1ccc(N(C)C)cc1)[n+]2C`, 6 nM; in that of `CCCCCCC[n+]1c(/C=C/c2ccc(N(C)C)c3ccccc23)sc2ccccc21`, 40 nM.
Then `CCCCCCC[n+]1c(/C=C/c2ccc(N(C)C)cc2)sc2cc(OC)ccc21`, with 40 nM.
In the case of `CN(C)c1ccc(/C=C/c2sc3ccc(Cl)cc3[n+]2C)cc1` it was 5.2 nM.
With `CN(C)c1ccc(/C=C/c2sc3ccc(F)cc3[n+]2Cc2ccccc2)cc1`, the IC50 is 32 nM. Compared with the last molecule, the IC50 is about 6.2-fold higher.
In the case of `CN(C)c1ccc(/C=C/c2nc3cc(Cl)ccc3s2)cc1` it was more than 100000 nM; in that of `Cc1ccc2c(c1)sc(/C=C/c1ccc(N(C)C)cc1)[n+]2Cc1ccccc1`, 50 nM; in that of `CCCCCCC[n+]1c(/C=C/c2ccc(N(CC)CC)cc2)sc2ccccc21`, 120 nM.
`CN(C)c1ccc(/C=C/c2sc3c(Cc4ccccc4)c(Cc4ccccc4)ccc3[n+]2C)cc1`: the IC50 amounted to 41 nM.
In the case of `CN(C)c1ccc(/C=C/c2sc3ccccc3[n+]2Cc2ccc3ccccc3c2)cc1` it was 13 nM; in that of `CN(C)c1ccc(/C=C/c2sc3ccc(Cc4ccccc4)c(Cc4ccccc4)c3[n+]2C)cc1`, 41 nM.
The molecule `CN(C)c1ccc(/C=C/c2sc3ccccc3[n+]2Cc2ccc(F)cc2)cc1` came in with an IC50 of 42 nM.
In the case of `CCCCCCC[n+]1c(/C=C/c2ccc(-n3cccc3)cc2)sc2ccccc21` it was 42 nM; in that of `CN(C)c1ccc(/N=N/c2nc3ccccc3s2)cc1`, 1200 nM; in that of `COc1ccc2c(c1)sc(/C=C/c1ccc(N(C)C)c3ccccc13)[n+]2C`, 26 nM.
Then `CN(C)c1ccc(/C=C/c2sc3cc([N+](=O)[O-])ccc3[n+]2C)cc1`, with 12 nM.
As to `CN(C)c1ccc(/C=C/c2sc3ccccc3[n+]2CCCCCOc2ccccc2)cc1`, the IC50 was 80 nM. Compared with the last molecule, the IC50 is about 6.7-fold higher.
Then `CN(C)c1ccc(/C=C/c2sc3ccccc3[n+]2CCCOCc2ccccc2)cc1`, with 52 nM.
In the case of `CN(C)c1ccc(/N=N/c2nc3ccc(Cl)cc3s2)cc1` it was 1300 nM; in that of `COc1ccc2c(c1)sc(/N=N/c1ccc(N(C)C)cc1)[n+]2C`, 10 nM.
